# Species: Rattus norvegicus
# Test: DrugMatrix - Regimen: Daily Repeat
# Type: toxicity, organism-based, Sprague-Dawley
# Set-up: regimen Daily Repeat, gender Male, age 6-8 weeks
# Details: in vivo, po, route oral GAVAGE, vehicle 100 % WATER; for ABSOLUTE BASOPHIL / ABSOLUTE EOSINOPHIL / ABSOLUTE LYMPHOCYTE / ABSOLUTE MONOCYTE / ABSOLUTE SEGMENTED NEUTROPHIL / BASOPHIL / EOSINOPHIL / ERYTHROCYTE COUNT / HEMATOCRIT / HEMOGLOBIN / LEUKOCYTE COUNT / LYMPHOCYTE / MEAN CORPUSCULAR HEMOGLOBIN / MEAN CORPUSCULAR HEMOGLOBIN CONCENTRATION / MEAN CORPUSCULAR VOLUME / MONOCYTE / NEUTROPHIL / NUCLEATED RED BLOOD CELLS / PLATELET COUNT: tissue Blood; for ALANINE AMINOTRANSFERASE / ALBUMIN / ALKALINE PHOSPHATASE / ASPARTATE AMINOTRANSFERASE / BLOOD UREA NITROGEN / CARBON DIOXIDE / CHLORIDE / CHOLESTEROL / CREATINE PHOSPHOKINASE / CREATININE / GLUCOSE / LACTATE DEHYDROGENASE / LIPASE / PHOSPHORUS / POTASSIUM / SODIUM / TOTAL BILIRUBIN / TOTAL PROTEIN / URIC ACID: tissue Plasma
# [1] = 20 mg/kg, 120 h, dose level Low, time 5 day
# [2] = 70 mg/kg, 72 h, dose level High, time 3 day
# [3] = 70 mg/kg, 120 h, dose level High, time 5 day
smiles,measurement,setting,value
CCCC(C)C1(CC)C(=O)NC(=O)NC1=O (centres undefined) [PENTOBARBITAL],ABSOLUTE BASOPHIL,[1],0 CELLS/uL
same,ABSOLUTE EOSINOPHIL,[1],0 CELLS/uL
same,ABSOLUTE LYMPHOCYTE,[1],9855 CELLS/uL
same,ABSOLUTE MONOCYTE,[1],58 CELLS/uL
same,ABSOLUTE SEGMENTED NEUTROPHIL,[1],1187 CELLS/uL
same,BASOPHIL,[1],0%
same,EOSINOPHIL,[1],0%
same,ERYTHROCYTE COUNT,[1],5.44 x10E6/uL
same,HEMATOCRIT,[1],34.1%
same,HEMOGLOBIN,[1],13.23 G/DL
same,LEUKOCYTE COUNT,[1],11.1 x10E3/uL
same,LYMPHOCYTE,[1],89%
same,MEAN CORPUSCULAR HEMOGLOBIN,[1],24.33 pg
same,MEAN CORPUSCULAR HEMOGLOBIN CONCENTRATION,[1],38.83 G/DL
same,MEAN CORPUSCULAR VOLUME,[1],62.67 fL
same,MONOCYTE,[1],0.67%
same,NEUTROPHIL,[1],10.33%
same,NUCLEATED RED BLOOD CELLS,[1],0 /100WBC
same,PLATELET COUNT,[1],1231.67 x10E3/uL
same,ALANINE AMINOTRANSFERASE,[1],60.33 u/L
same,ALBUMIN,[1],3.8 G/DL
same,ALKALINE PHOSPHATASE,[1],346 u/L
same,ASPARTATE AMINOTRANSFERASE,[1],88.33 u/L
same,BLOOD UREA NITROGEN,[1],17 mg/dL
same,CARBON DIOXIDE,[1],32.67 mmol/L
same,CHLORIDE,[1],99.33 MEQ/L
same,CHOLESTEROL,[1],71.67 mg/dL
same,CREATINE PHOSPHOKINASE,[1],344.67 u/L
same,CREATININE,[1],0.19 mg/dL
same,GLUCOSE,[1],155 mg/dL
same,LACTATE DEHYDROGENASE,[1],163 u/L
same,LIPASE,[1],8.67 u/L
same,PHOSPHORUS,[1],11.17 mg/dL
same,POTASSIUM,[1],5.63 MEQ/L
same,SODIUM,[1],145.17 MEQ/L
same,TOTAL BILIRUBIN,[1],0.17 mg/dL
same,TOTAL PROTEIN,[1],5.63 G/DL
same,URIC ACID,[1],0.67 mg/dL
same,ABSOLUTE BASOPHIL,[2],0 CELLS/uL
same,ABSOLUTE EOSINOPHIL,[2],29 CELLS/uL
same,ABSOLUTE LYMPHOCYTE,[2],9707 CELLS/uL
same,ABSOLUTE MONOCYTE,[2],106.67 CELLS/uL
same,ABSOLUTE SEGMENTED NEUTROPHIL,[2],824 CELLS/uL
same,BASOPHIL,[2],0%
same,EOSINOPHIL,[2],0.33%
same,ERYTHROCYTE COUNT,[2],5.46 x10E6/uL
same,HEMATOCRIT,[2],34.73%
same,HEMOGLOBIN,[2],13.4 G/DL
same,LEUKOCYTE COUNT,[2],10.67 x10E3/uL
same,LYMPHOCYTE,[2],91%
same,MEAN CORPUSCULAR HEMOGLOBIN,[2],24.57 pg
same,MEAN CORPUSCULAR HEMOGLOBIN CONCENTRATION,[2],38.63 G/DL
same,MEAN CORPUSCULAR VOLUME,[2],63.53 fL
same,MONOCYTE,[2],1%
same,NEUTROPHIL,[2],7.67%
same,NUCLEATED RED BLOOD CELLS,[2],0 /100WBC
same,PLATELET COUNT,[2],792 x10E3/uL
same,ALANINE AMINOTRANSFERASE,[2],58 u/L
same,ALBUMIN,[2],4.2 G/DL
same,ALKALINE PHOSPHATASE,[2],300.33 u/L
same,ASPARTATE AMINOTRANSFERASE,[2],75.67 u/L
same,BLOOD UREA NITROGEN,[2],13 mg/dL
same,CARBON DIOXIDE,[2],34.67 mmol/L
same,CHLORIDE,[2],101.33 MEQ/L
same,CHOLESTEROL,[2],81.33 mg/dL
same,CREATINE PHOSPHOKINASE,[2],230 u/L
same,CREATININE,[2],0.16 mg/dL
same,GLUCOSE,[2],139 mg/dL
same,LACTATE DEHYDROGENASE,[2],113.33 u/L
same,LIPASE,[2],9 u/L
same,PHOSPHORUS,[2],11.77 mg/dL
same,POTASSIUM,[2],6.23 MEQ/L
same,SODIUM,[2],146.57 MEQ/L
same,TOTAL BILIRUBIN,[2],0.2 mg/dL
same,TOTAL PROTEIN,[2],6.17 G/DL
same,URIC ACID,[2],0.73 mg/dL
same,ABSOLUTE BASOPHIL,[3],0 CELLS/uL
same,ABSOLUTE EOSINOPHIL,[3],23.33 CELLS/uL
same,ABSOLUTE LYMPHOCYTE,[3],7811.33 CELLS/uL
same,ABSOLUTE MONOCYTE,[3],0 CELLS/uL
same,ABSOLUTE SEGMENTED NEUTROPHIL,[3],598.67 CELLS/uL
same,BASOPHIL,[3],0%
same,EOSINOPHIL,[3],0.33%
same,ERYTHROCYTE COUNT,[3],5.7 x10E6/uL
same,HEMATOCRIT,[3],36%
same,HEMOGLOBIN,[3],13.73 G/DL
same,LEUKOCYTE COUNT,[3],8.43 x10E3/uL
same,LYMPHOCYTE,[3],92.33%
same,MEAN CORPUSCULAR HEMOGLOBIN,[3],24.1 pg
same,MEAN CORPUSCULAR HEMOGLOBIN CONCENTRATION,[3],38.17 G/DL
same,MEAN CORPUSCULAR VOLUME,[3],63.17 fL
same,MONOCYTE,[3],0%
same,NEUTROPHIL,[3],7.33%
same,NUCLEATED RED BLOOD CELLS,[3],0 /100WBC
same,PLATELET COUNT,[3],1184.67 x10E3/uL
same,ALANINE AMINOTRANSFERASE,[3],60 u/L
same,ALBUMIN,[3],4.2 G/DL
same,ALKALINE PHOSPHATASE,[3],346 u/L
same,ASPARTATE AMINOTRANSFERASE,[3],81 u/L
same,BLOOD UREA NITROGEN,[3],14 mg/dL
same,CARBON DIOXIDE,[3],33 mmol/L
same,CHLORIDE,[3],99 MEQ/L
same,CHOLESTEROL,[3],74.33 mg/dL
same,CREATINE PHOSPHOKINASE,[3],461.33 u/L
same,CREATININE,[3],0.13 mg/dL
same,GLUCOSE,[3],131.67 mg/dL
same,LACTATE DEHYDROGENASE,[3],142.67 u/L
same,LIPASE,[3],11.67 u/L
same,PHOSPHORUS,[3],10.57 mg/dL
same,POTASSIUM,[3],5.73 MEQ/L
same,SODIUM,[3],145.3 MEQ/L
same,TOTAL BILIRUBIN,[3],0.2 mg/dL
same,TOTAL PROTEIN,[3],6.17 G/DL
same,URIC ACID,[3],0.53 mg/dL

# — ChEMBL document CHEMBL3885881, “DrugMatrix”
